Measurements reported in patent US20230248723A1, “PYRROLO[2,3-B]PYRAZINE COMPOUNDS AS CCCDNA INHIBITORS FOR THE TREATMENT OF HEPATITIS B VIRUS (HBV) INFECTION” (Hoffmann-La Roche Inc., priority 2017, published 2023).
Like-named read-outs stand apart in the source and are kept apart here.

Assays:
Format in all cases: cell-based
[1] = test system: HBsAg; test: HBsAg, multiplex assay, HBV-infected PHH; details: for IC50: Hepatitis B virus, read-out: HBsAg IC50 (μM) Median, PHH, patient-derived HBV (GT D)
Protocol: (§1) Fresh primary human hepatocytes (PXB-PHH) harvested from humanized mice (uPA/SCID mice)—herein called PHH—were obtained from PhoenixBio Co., Ltd (Japan). Cells were seeded on a collagen I-coated plate at the following cell density: 35,000 cells/well (384-well), 70,000 cells/well (96-well), or, 400,000 cells/well (24-well) in modified hepatocyte clonal growth medium (dHCGM). dHCGM is a DMEM medium containing 100 U/ml Penicillin, 100 μg/ml Streptomycin, 20 mM Hopes, 44 mM NaHCO3, 15 μg/ml L-proline, 0.25 μg/ml insulin, 50 nM Dexamethazone, 5 ng/ml EGF, 0.1 mM Asc-2P, 2% DMSO and 10% FBS (Ishida et al., 2015). Cells were cultured at 37° C. incubator in a humidified atmosphere with 5% CO2. Culture medium was replaced 24 h post-plating and every 2 days until harvest.
(§2) Following 4 day of maturation with 1 μM MB-1, HLC were incubated with HBV (purified from CHB individuals) at multiplicity of infection (MOI) 10-40 without PEG for 24 hr; virus inoculum was removed the following day. […] Compound treatment in HLC and PHH was started at day 3 post infection. Compound (in powder) was dissolved in DMSO; the final concentration of DMSO added to cells is 1%. Fresh compound was replenished every 2 day until cells were harvested at day 10 (PHH), or day 14 (HLC). Compound effect on HBV and cellular toxicity was measured by multiplex assay (HBsAg, HBeAg, albumin), branched DNA (pgRNA), or digital PCR (cccDNA) and depicted as % of inhibition compared to DMSO control. Graphs were prepared using Spotfire software.
(§3) A custom, Luminex-based multiplex assay that simultaneously measured HBeAg, albumin, and HBsAg was developed by Radix BioSolutions (Georgetown, Tex.). This is a sandwich immunoassay; each capture antibody was coupled with xMAP™ Luminex magnetic beads. The dynamic ranges of analyte detection are as follows: HBeAg (1-316 ng/ml), albumin (3.1-10,000 ng/ml), and HBsAg (0.1-100 ng/ml) with coefficient variant (CV) […]. Samples were read on FlexMAP 3D (Luminex) and analyzed by Genedata software.

[2] = test system: HBeAg; test: HBeAg, multiplex assay, HBV-infected PHH; details: for IC50: Hepatitis B virus, read-out: HBeAg IC50 (μM) Median, PHH, patient-derived HBV (GT D)
Protocol: as §1, §2, §3

[3] = test system: pgRNA; test: pgRNA assay (branched DNA), HBV-infected PHH; details: patient-derived HBV (GT D), read-out: pgRNA IC50 (μM) Median
Protocol: as §1, §2
Levels of pgRNA in infected cells (96-well plate) were measured using QuantiGene Singleplex 2.0 assay (Affymetrix), a hybridization-based assay that utilizes the xMAP™ Luminex magnetic beads and branched DNA (bDNA) signal amplification technology. The assay is performed in 96-well plate according to manufacturer's recommendation. Briefly, cells were lysed and lysates were incubated with HBV probe sets panel at 50-55° C. for 30 min then stored at −80° C. Signal amplification is achieved via sequential hybridization of PreAmplifier, Amplifier, and Label Probe. After adding Streptavidin phycoerythrin (SAPE) substrate, the signal is read using a FlexMap 3D (Luminex) instrument.

[4] = test system: cccDNA; test: cccDNA assay (digital PCR), HBV-infected PHH; details: for IC50: Hepatitis B virus, patient-derived HBV (GT D), read-out: cccDNA IC50 (μM) Median
Protocol: as §1
Following 4 day of maturation with 1 μM MB-1, HLC were incubated with HBV (purified from CHB individuals) at multiplicity of infection (MOI) 10-40 without PEG for 24 hr; virus inoculum was removed the following day. HBV infection in PHH was performed at MOI 40+4% PEG. Compound treatment in HLC and PHH was started at day 3 post infection. Compound (in powder) was dissolved in DMSO; the final concentration of DMSO added to cells is 1%. Fresh compound was replenished every 2 day until cells were harvested at day 10 (PHH), or day 14 (HLC). Compound effect on HBV and cellular toxicity was measured by multiplex assay (HBsAg, HBeAg, albumin), branched DNA (pgRNA), or digital PCR (cccDNA) and depicted as % of inhibition compared to DMSO control. Graphs were prepared using Spotfire software.
HBV-infected cells (in 384- or 96-well plate) were lysed with Cells-to-CT Lysis Reagents according to manufacturer's instruction (Thermo Scientific). To remove excess of RC-DNA, samples were digested with T5 exonuclease (10 U) (New England Biolabs), at 37° C. for 1 hr; enzyme was inactivated by heating the samples at 80° C. for 15 min. DNA samples (1.2 μl) were added into the digital PCR Master Mix (QuantStudio Digital PCR Kit, Thermo Scientific) containing cccDNA primers 5′-[…] (forward), 5′-[…] (reverse), and […] (probe) (Werle-Lapostolle et al., 2004) in a total volume 5 μl, and loaded into dPCR array using AccuFill System (AB). Each sample was loaded into 4 subarrays/256 through-holes. Digital PCR assay was run on QuantStudio 12K Flex (AB) and data was analyzed by Digital Suite Software (AB).

[5] = test system: albumin (secreted, cellular toxicity marker); test: Albumin (in vitro cellular tox marker), multiplex assay, PHH; details: human, primary human hepatocytes (PXB-PHH) infected with HBV, patient-derived HBV (GT D), read-out: In vitro tox albumin IC50 (μM) Median
Protocol: as §1, §2, §3

[6] = test system: HBV DNA; test: HBV DNA in culture medium of HBV-infected PHH; details: PHH, patient-derived HBV GT D, MOI 40, treatment from day 3, day 10 pi
From the text: FIG. 8: Establishment of dPCR assay for cccDNA quantification. […] A 3.2-kb, linearized plasmid HBV is used as a standard curve for relative quantification of HBV DNA by TaqMan-PCR. […] (B) Testing primer & PCR specificity and removal of excess RC-DNA. In contrast to TaqMan-PCR (relative quantification method), digital PCR (dPCR) is an absolute quantification method without the need of standard curve. […] First step—Testing primer and PCR specificity. Serum-derived HBV (contains RC-DNA, devoid of cccDNA) was used as a DNA template for dPCR using 2 sets of primers (for HBV core and cccDNA region) (Werle-Lapostolle et al., 2004). Samples were amplified by dPCR on QuantStudio 12K Flex Real-Time PCR System (AB); 4 subarrays (256 through-holes) were used for each sample. […] Second step—Removal of excess RC-DNA. PHH seeded in 96-well were infected with HBV. At day 6 pi, cell lysates were digested with Plasmid safe, ATP-dependent, DNAse (PSAD), T5 exonuclease, or, T5 exonuclease followed by EcoRI, for 1 hr at 37° C. Samples were amplified by dPCR using cccDNA primers on QuantStudio 12K Flex Real-Time PCR System (AB); 4 subarrays (256 through-holes) were used for each sample. […] Fresh medium and compound was replenished every 2 day. At day 10 pi, culture media were harvested and measured for HBV DNA, HBsAg, and HBeAg. Albumin was used as a surrogate of in vitro tox marker. Cells were lysed and treated with T5 exonuclease, cccDNA was then measured by dPCR on QuantStudio 12K Flex Real-Time PCR System (AB); 4 subarrays (256 through-holes) were used for each sample. […] Cells were treated with compounds at the indicated concentrations starting from day 3 post infection (patient-derived HBV, GT D). Fresh medium and compound was replenished every 2 day. Cells were harvested at day 10 pi; viral markers and albumin were measured from culture medium.
HBV from sera of CHB individuals were purified using OptiPrep™ (Axis-Shield, Norway) density gradient. Briefly, OptiPrep™ stock solution (60%) was diluted to 50% and 10% in PBS; equal volume of each solution was then added into SW41 tubes (BD Biosciences). Linear gradient was performed by placing the tubes on Gradient Master 108™ (Biocomp) at setting: 800, 25 rpm for 30″. Two hundred microliter (200 μl) of serum was overlaid on the top of gradient and samples were centrifuged at 100,000×g for 2 hours at 4° C. […] Fractions containing the peak of HBV DNA were pooled and used as virus inoculum for all infection experiments. All fractions were stored at −80° C. until used.
Fresh primary human hepatocytes (PXB-PHH) harvested from humanized mice (uPA/SCID mice)—herein called PHH—were obtained from PhoenixBio Co., Ltd (Japan).

[7] = PHH, patient-derived HBV GT D, MOI 40, treatment from day 3, day 10 pi

Structure (SMILES) | IC50 [1] [µM] | IC50 [2] [µM] | IC50 ([3]; Hepatitis B virus) [µM] | IC50 [4] [µM] | IC50 at 7 days [5] [µM] | IC50 [3] [µM] | effect on HBsAg (other viral markers) [1, 7] | effect on HBeAg (other viral markers) [2, 7] | effect on HBV DNA [6] | effect on cccDNA (other viral markers) ([4]; patient-derived HBV GT D, MOI 40, treatment from day 3, day 10 pi, dPCR)
CC(C)(CO)NC(=O)c1c[nH]c2ncc(C3CC3)nc12 [compound 1] | 0.17 | 0.17 | 14.2 | 52.7 | 18.7 | – | – | – | – | –
O=C(NC1(CO)CCCC1)c1c[nH]c2ncc(C3CC3)nc12 [compound 2] | 0.68 | 0.68 | – | 30.1 | 24.2 | – | – | – | – | –
CC(C)(O)C(CCO)NC(=O)c1c[nH]c2ncc(C3CC3)nc12 (stereo not drawn) [compound 3] | 3.62 | 3.58 | 12.8 | 43.7 | 33.4 | – | – | – | – | –
CC[C@@H](CO)NC(=O)c1c[nH]c2ncc(C3CC3)nc12 [compound 4] | 0.68 | 0.68 | < 10 | 63.7 | 48 | 6.93 | – | – | – | –
C[C@H](CO)NC(=O)c1c[nH]c2ncc(C3CC3)nc12 [compound 5] | 5.61 | 2.95 | ≥ 100 | 160 | 135 | – | – | – | – | –
O=C(NC1(CO)CCOCC1)c1c[nH]c2ncc(C3CC3)nc12 [compound 6] | 0.75 | 0.49 | 15.7 | ≥ 166 | ≥ 166 | – | – | – | – | –
C[C@@H](CO)NC(=O)c1c[nH]c2ncc(C3CC3)nc12 [compound 8] | 1.22 | 2.29 | – | 30.8 | 31.9 | – | – | – | – | –
CC(C)(O)C(C)(C)NC(=O)c1c[nH]c2ncc(C3CC3)nc12 [compound 9] | 0.51 | 0.68 | – | 49.2 | 21.3 | – | – | – | – | –
C=C1[C@H](CO)[C@@H](O)C[C@@H]1n1cnc2c(=O)[nH]c(N)nc21 [entecavir, reference compound] | – | – | – | – | – | – | no effect | no effect | highly potent | no effect
